What was measured:
Assay in all cases: relative viability (nuclei count vs DMSO), 5 days (fraction); higher = more cells survive
Erlotinib + Olaparib = compound: C#Cc1cccc(Nc2ncnc3cc(OCCOC)c(OCCOC)cc23)c1 [Erlotinib] + O=C(c1cc(Cc2n[nH]c(=O)c3ccccc23)ccc1F)N1CCN(C(=O)C2CC2)CC1 [Olaparib] (partner 8 µM)
In short: (§1)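 Relative viability was taken as the ratio of nuclei in treated wells to nuclei in vehicle wells. Lung cancer cell lines in 1536-well plates received compounds by pin tool one day after seeding, either one drug alone or a fixed anchor-drug dose plus five library-drug doses (not always all listed) in √10 steps. Nuclei were counted on 4× images after 5 days of treatment, and values are medians of duplicate plates.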

AT9283 + Foretinib = compound: O=C(Nc1c[nH]nc1-c1nc2ccc(CN3CCOCC3)cc2[nH]1)NC1CC1 [AT9283] + COc1cc2c(Oc3ccc(NC(=O)C4(C(=O)Nc5ccc(F)cc5)CC4)cc3F)ccnc2cc1OCCCN1CCOCC1 [Foretinib] (partner 0.25 µM)
In short: as §1

AT9283 + Tozasertib = compound: O=C(Nc1c[nH]nc1-c1nc2ccc(CN3CCOCC3)cc2[nH]1)NC1CC1 [AT9283] + Cc1cc(Nc2cc(N3CCN(C)CC3)nc(Sc3ccc(NC(=O)C4CC4)cc3)n2)n[nH]1 [Tozasertib] (partner 0.1 µM)
In short: as §1

Erlotinib + Luminespib = compound: C#Cc1cccc(Nc2ncnc3cc(OCCOC)c(OCCOC)cc23)c1 [Erlotinib] + CCNC(=O)c1noc(-c2cc(C(C)C)c(O)cc2O)c1-c1ccc(CN2CCOCC2)cc1 [Luminespib] (partner 0.01 µM)
In short: as §1

Erlotinib + OSI-027 = compound: C#Cc1cccc(Nc2ncnc3cc(OCCOC)c(OCCOC)cc23)c1 [Erlotinib] + COc1cccc2cc(-c3nc([C@H]4CC[C@H](C(=O)O)CC4)n4ncnc(N)c34)[nH]c12 [OSI-027] (partner 0.5 µM)
In short: as §1

| Cell Line | relative viability (Erlotinib + Olaparib; first compound 0.02 µM) | relative viability (Erlotinib + Olaparib; first compound 0.2 µM) | relative viability (Erlotinib + Olaparib; first compound 0.6325 µM) | relative viability (Erlotinib + Olaparib; first compound 2 µM) | relative viability (AT9283 + Foretinib; first compound 0.003 µM) | relative viability (AT9283 + Foretinib; first compound 0.03 µM) | relative viability (AT9283 + Foretinib; first compound 0.09487 µM) | relative viability (AT9283 + Foretinib; first compound 0.3 µM) | relative viability (AT9283 + Tozasertib; first compound 0.003 µM) | relative viability (AT9283 + Tozasertib; first compound 0.03 µM) | relative viability (AT9283 + Tozasertib; first compound 0.09487 µM) | relative viability (AT9283 + Tozasertib; first compound 0.3 µM) | relative viability (Erlotinib + Luminespib; first compound 0.02 µM) | relative viability (Erlotinib + Luminespib; first compound 0.2 µM) | relative viability (Erlotinib + Luminespib; first compound 0.6325 µM) | relative viability (Erlotinib + Luminespib; first compound 2 µM) | relative viability (Erlotinib + OSI-027; first compound 0.02 µM) | relative viability (Erlotinib + OSI-027; first compound 0.2 µM) | relative viability (Erlotinib + OSI-027; first compound 0.6325 µM) | relative viability (Erlotinib + OSI-027; first compound 2 µM) |
| --- | --- | --- | --- | --- | --- | --- | --- | --- | --- | --- | --- | --- | --- | --- | --- | --- | --- | --- | --- | --- |
| EMC-BAC-2 | 0.569 | 0.547 | 0.492 | 0.46 | 1.04 | 0.305 | 0.289 | 0.208 | 0.283 | 0.192 | 0.198 | 0.133 | 1.12 | 1.06 | 1.19 | 1.03 | 0.394 | 0.416 | 0.353 | 0.302 |
| NCI-H2085 | 0.754 | 0.768 | 0.655 | 0.619 | 1.1 | 0.736 | 0.51 | 0.338 | 0.835 | 0.832 | 0.5 | 0.387 | 0.412 | 0.352 | 0.308 | 0.339 | 0.787 | 0.448 | 0.349 | 0.245 |
| NCI-H1355 | 0.796 | 0.709 | 0.684 | 0.558 | 0.871 | 0.952 | 0.582 | 0.272 | 0.518 | 0.464 | 0.224 | 0.218 | – | 0.597 | 0.658 | 0.557 | 0.382 | 0.387 | 0.325 | 0.296 |
| NCI-H358 | 0.583 | 0.599 | 0.403 | 0.199 | 0.653 | 0.155 | 0.0898 | 0.0981 | 0.108 | 0.0953 | 0.107 | 0.0809 | 0.262 | 0.225 | 0.31 | 0.12 | 0.82 | 0.458 | 0.407 | 0.152 |
| NCI-H1755 | 0.942 | 0.892 | 0.888 | 0.818 | 0.871 | 0.755 | 0.559 | 0.496 | 0.624 | 0.469 | 0.419 | 0.367 | 0.412 | 0.432 | 0.536 | 0.413 | 0.757 | 0.776 | 0.786 | 0.619 |
| COR-L 105 | 0.638 | 0.603 | 0.47 | 0.294 | 0.847 | 0.673 | 0.249 | 0.361 | 0.384 | 0.318 | 0.283 | 0.288 | 0.779 | 0.472 | 0.378 | 0.216 | 0.595 | 0.262 | 0.365 | 0.27 |
| NCI-H647 | 0.556 | 0.541 | 0.594 | 0.243 | 1.41 | 0.396 | 0.273 | 0.202 | 0.307 | 0.14 | 0.117 | 0.118 | 0.218 | 0.119 | 0.142 | 0.0816 | 0.594 | 0.606 | – | 0.449 |
| BEN | 1.3 | 1.06 | 1.14 | 1.03 | 0.47 | 0.65 | 0.185 | 0.19 | 0.598 | 0.503 | 0.387 | 0.376 | 0.369 | 0.34 | 0.442 | 0.693 | 0.334 | 0.301 | 0.317 | 0.304 |
